Drawing on PubChem BioAssay (NCI), this text covers TGI for 15 compounds.

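48-hour exposure; five concentrations; linearly interpolated endpoints. At the TGI there is no net growth.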

What all share (assay): growth of human tumour cells (NCI), 48 h
Assay [1] relates to A549 NSCLC.
Assay [2] concerns BT-549 breast.
The test system of assay [3] is DU-145 prostate.
Assay [4] has as its system HCT-15 colon.
For assay [5], the system named is IGROV1 ovarian.
In assay [6] the test system is K-562 leukemia.
The subject of assay [7] is M14 melanoma.
The test system of assay [8] is MALME-3M melanoma.
Assay [9] has as its system MDA-N.
Assay [10] deals with NCI-H522 lung.
Assay [11] has as its system OVCAR-4 ovarian.
For assay [12], the system named is PC-3 prostate.
For assay [13], the system named is SK-MEL-5 melanoma.
The subject of assay [14] is SK-OV-3 ovarian.
In assay [15] the test system is SNB-75 CNS.
The subject of assay [16] is SW-620 colon.
Assay [17] concerns T-47D breast.
For assay [18], the system named is UACC-257 melanoma.
Assay [19] has as its system UO-31 renal.
The test system of assay [20] is A498 renal.

In the case of `N=c1oc2cc(O)ccc2cc1C(=O)NCc1ccccc1`, the TGI is more than 100 µM in assay [1]; 71.1 µM in assay [2]; 56.4 µM in [3]; more than 100 µM in assay [4]; more than 100 µM in [5]; 28.2 µM in assay [6]. Also, the TGI in [7] is more than 100 µM; in [8], 58.7 µM; in assay [9] it was 49.7 µM; in assay [10] it was 39.1 µM; in [11], more than 100 µM; in assay [12] it was more than 100 µM. For the same compound, the TGI was 29.5 µM in assay [13]; 70 µM in assay [14]; 43.8 µM in [15]; 81.6 µM in assay [16]; 33.7 µM in assay [17]; more than 100 µM in assay [18]. In assay [19], this compound showed a TGI of more than 100 µM.
Regarding `COC(=O)c1ccccc1CC1Cc2ccc3c(c2C1=O)CCC3` (centres undefined), the TGI in assay [1], in assay [2], in [3], in [4], in [5] and in assay [6] was more than 100 µM in each case. The TGI is more than 100 µM in assay [7]; more than 100 µM in assay [8]; more than 100 µM in assay [9]; 88 µM in [10]; more than 100 µM in assay [11]; more than 100 µM in [12]. The TGI in assay [13] was 62.3 µM; in assay [14], more than 100 µM; in [15], 80.7 µM; in [16], more than 100 µM; in [17], more than 100 µM; in assay [18], more than 100 µM. Moreover, in assay [19], the TGI is more than 100 µM.
Consider `CCNCCNc1c2ccccc2nc2ccccc12`, for which the TGI in assay [1] was 4.95 µM; in assay [2], 10.2 µM; in assay [3] it was 7.42 µM; in [4] it was 5.83 µM; in assay [5], 9.82 µM; in assay [6], 5.66 µM. Also, the TGI in [7] was found to be 3.05 µM; in assay [8] it was 4.6 µM; in assay [9], 2.81 µM; in [10], 4.69 µM; in assay [11] it was 11.1 µM; in [12], 3.95 µM. Moreover, the TGI in assay [13] came out at 7.41 µM; in assay [14], 12.2 µM; in assay [15], 3.52 µM; in assay [16], 2.84 µM; in assay [17], 8.41 µM; in [18], 3.46 µM. For the same compound, the TGI in assay [19] worked out at 5.02 µM.
For `CCOC(=O)c1ccc(N=C2C(=S)N(c3ccc(C(=O)OCC)cc3)C(=N)N2/N=C/c2ccccc2)cc1`, the TGI in assay [1] was more than 100 µM; in assay [2] it was 80.2 µM; in assay [3], more than 100 µM; in assay [4], more than 100 µM; in [5], more than 100 µM; in [6], more than 100 µM. For the same compound, the TGI is 24.9 µM in [7]; 49.1 µM in assay [8]; 33 µM in assay [9]; 6.1 µM in assay [10]; 18.4 µM in [12]; 35.6 µM in assay [13]. For the same compound, the TGI is 59 µM in assay [14], 63.1 µM in assay [17] and 28.9 µM in assay [19].
`CSc1ncc2c(C#N)c3sc4ccccc4n3c(=O)c2n1`: the TGI in [20], in assay [1], in assay [2], in [3], in assay [4] and in assay [5] was more than 100 µM each time. Further, the TGI in assay [6], in [7], in assay [8], in [9], in assay [11] and in assay [12] was more than 100 µM each time. The TGI in assay [13], in assay [14], in assay [15], in [16], in assay [17] and in assay [18] was more than 100 µM in each case. In [19], the TGI is more than 100 µM.
On to `CC(=O)N1C(c2[nH]c3ccccc3c2-c2ccccc2)CCN1c1ccccc1` (centres undefined), for which the TGI in assay [1], in assay [2], in [3], in [4], in assay [5] and in assay [6] was more than 10 µM in each case. Besides, the TGI in assay [7], in assay [8], in assay [9], in assay [10], in assay [11] and in assay [12] was more than 10 µM throughout. Besides, the TGI in [13], in assay [14], in assay [15], in assay [16], in assay [17] and in assay [18] was more than 10 µM in each case. Besides, the TGI in assay [19] is more than 10 µM.
Take `CC(=O)CCCCC(=O)Nc1ccc(CC(NC(=O)OC(C)(C)C)C(=O)NCC(=O)OCc2ccccc2)cc1` (centres undefined): the TGI in assay [20] is 60.6 µM; in assay [1] it was more than 100 µM; in assay [2], 28.6 µM; in assay [3], 88.5 µM; in assay [4], more than 100 µM; in [5], more than 100 µM. Besides, the TGI in [6] worked out at 47.6 µM; in assay [7], 55.2 µM; in [8] it was 40.4 µM; in assay [9], 38.6 µM; in [10] it was 57.9 µM; in assay [11], 27.6 µM. Besides, the TGI was 27.5 µM in assay [12]; 27.8 µM in assay [13]; 52.7 µM in assay [14]; 33 µM in assay [16]; 42.6 µM in assay [17]; 39.2 µM in assay [19].
In the case of `CC(=O)OCC1OC(SC2=N/C(=C\c3cc4c(=O)c5ccccc5sc4s3)C(=O)N2c2ccccc2)C(OC(C)=O)C(OC(C)=O)C1OC(C)=O` (centres undefined), the TGI in assay [20], in [2], in [3], in assay [4], in assay [5] and in [6] was more than 100 µM in each case. For the same compound, the TGI in assay [8], in assay [9], in assay [10], in assay [11], in assay [12] and in assay [13] was more than 100 µM throughout. The TGI in assay [15], in assay [16], in assay [17], in assay [18] and in assay [19] was more than 100 µM throughout.
In the case of `COCCN(C(C)=O)C1CCC2(SCCS2)c2[nH]c3ccccc3c21` (centres undefined), the TGI in assay [20], in assay [1], in assay [2], in assay [3], in assay [4] and in [5] was more than 100 µM each time. In addition, the TGI in assay [6], in assay [8], in assay [9], in assay [10], in assay [12] and in assay [13] was more than 100 µM each time. Moreover, the TGI in assay [15], in assay [16] and in assay [18] was more than 100 µM throughout.
With `NC(=O)NNc1nc2ccccc2c(=O)n1NC(=O)C(=O)Nc1ccc(Cl)cc1Cl`, the TGI in assay [20], in [1], in assay [2], in assay [4], in assay [5] and in assay [6] was more than 100 µM each time. Besides, the TGI in [7], in assay [8], in assay [9], in [10], in assay [11] and in [12] was more than 100 µM each time. The TGI in [13], in assay [14], in assay [15], in assay [16], in assay [17] and in assay [18] was more than 100 µM each time. In addition, the TGI in assay [19] was more than 100 µM.
As to `O=C(/C=C/c1ccccc1)/C=N/N1C(=S)N(c2ccccc2)C(=Nc2ccccc2)C1=Nc1ccccc1`, the TGI in assay [1], in assay [2], in [3], in [4], in assay [5] and in [6] was more than 100 µM in each case. Moreover, the TGI is more than 100 µM in [7]; more than 100 µM in assay [8]; more than 100 µM in assay [9]; 62.9 µM in assay [10]; more than 100 µM in assay [12]; more than 100 µM in [13]. The TGI in [14], in [16], in [17], in assay [18] and in assay [19] was more than 100 µM each time.
Take `NC(=O)N/N=C1\CCCCc2ccccc21`: the TGI in assay [1], in assay [2], in assay [3], in assay [4], in assay [6] and in assay [7] was more than 10 µM throughout. Also, the TGI in assay [8], in assay [9], in [10], in assay [11], in assay [12] and in assay [16] was more than 10 µM throughout. Also, the TGI in assay [17], in assay [18] and in assay [19] was more than 10 µM each time.
On to `[N-]=[N+]=Nc1c(C=O)c(=O)n2c3c(cccc13)CCC2`, for which the TGI in assay [20] came to 28.8 µM; in assay [1], 40.9 µM; in [2], 6.07 µM; in assay [3], 21 µM; in assay [4], 11.5 µM; in assay [5] it was 25 µM. Besides, the TGI amounted to 13 µM in assay [6]; 3.9 µM in [7]; 4.26 µM in assay [8]; 15.3 µM in assay [9]; 8.49 µM in assay [11]; 27.2 µM in assay [12]. The TGI in [13] came to 27.5 µM; in assay [14], 33.9 µM; in [15] it was 29.1 µM; in [16] it was 2.87 µM; in [17] it was 15.5 µM; in assay [18], 10 µM. The TGI in [19] worked out at 6.39 µM.
Consider `C[n+]1c2ccccc2c(C(=O)Nc2ccc(S(=O)(=O)Nc3ccnn3-c3ccccc3)cc2)c2ccccc21`, for which the TGI in [1], in assay [2], in assay [3], in assay [4], in [5] and in assay [6] was more than 100 µM throughout. In addition, the TGI in assay [7], in [8], in [9], in [11], in [12] and in [13] was more than 100 µM throughout. For the same compound, the TGI in assay [14], in [15], in [16], in [17], in assay [18] and in [19] was more than 100 µM throughout.
`CCCCCCCCCCCC(=O)Oc1c(Cl)cc(Cl)c(OC(=O)C(=O)Oc2c(Cl)cc(Cl)c(OC(=O)CCCCCCCCCCC)c2Cl)c1Cl`: the TGI in [1], in assay [2], in [3], in [5], in [8] and in [9] was more than 100 µM throughout. The TGI in assay [10], in assay [11], in [12], in assay [13], in assay [14] and in assay [15] was more than 100 µM each time. Further, the TGI in [16], in assay [17], in assay [18] and in [19] was more than 100 µM throughout.
